According to US20030158250A1, “Agents correcting gene expression regulatory error” (priority 2000, published 2003):

Key:
Assay type in all cases: cell-based
[1] = tested on: CD37 antigen (CD37); assay: RT-PCR expression level of CD37 gene in monocytes; conditions: human monocytes, 35 PCR cycles
Procedure: (§1) Four-hundred milliliters of blood was collected from a human normal individual donor. The collected blood was diluted 2-folds with PBS(−), overlaid on Ficoll-paque (manufactured by Pharmacia), and centrifuged at 500×g for 20 minutes. The peripheral blood mononuclear cells (PBMCs) in the intermediate layer was collected with a pipette, and washed with RPMI 1640 medium (manufactured by Bio Whittaker). The collected PBMCs was suspended in a storage solution of 90% FCS (manufactured by JRH Biosciences)/10% dimethyl sulfoxide, and stored in liquid nitrogen. During the experiment, these stored PBMCs were rapidly melted in water bath at 37° C., and washed with RPMI 1640 medium containing 10 μg/ml Dnase (manufactured by Calbiochem). Thereafter, the number of living cells was calculated by trypan blue staining method, and subjected to each experiment.
(§2) PBMCs were suspended in RPMI 1640 medium containing 5% human serum of blood type-AB, 0.1 mM nonessential amino acid, 1 mM sodium pyruvate, 2 mM L-glutamine (hereinabove manufactured by Bio Whittaker), 10 mM HEPES (manufactured by nakalai tesque), and 1% streptomycin-penicillin (manufactured by Gibco BRL) (hereinafter simply referred to as “5HRPMI medium”) so as to have a concentration of 4×10^6 cells/ml. Thereafter, the suspension was spread on a 6-well cell culture plate (manufactured by Falcon) in a volume of 3 ml/well, and the cells were incubated in a wet-type incubator at 37° C. and 5% CO2 for 1.5 hours. After 1.5 hours, the non-adherent cells were removed by suction, and each well was washed with RPMI 1640 medium, and 2 ml of the 5HRPMI medium was added to the wells, to give monocytes.
(§3) To the monocytes obtained above was added in each well 8 μl of an aqueous DGE solution, or 8 μl of water as a control, and the cells were incubated in a wet-type incubator at 37° C. and 5% CO2 for 5 hours. Thereafter, with addition of 2 μl of a 1 μg/ml aqueous LPS solution or 2 μl of a 25 μM TPA dimethyl sulfoxide solution to each well, or with addition of neither of these substances thereto, the cells were cultured for additional 4 hours. Thereafter, RNA was prepared from each cell in accordance with the description of the kit using RNeasy Mini Kit (manufactured by QIAGEN, 74104). The group with addition of water alone or the aqueous DGE solution alone to the cells was set as a negative control, and the group with addition of water and the aqueous LPS solution or the aqueous TPA solution to the cells was set as a positive control.
(§4) A liquid mixture having a total volume of 60 μl of 0.5 μg of RNA prepared above, 10 mM Tris-HCl (pH 8.3), 50 mM KCl, 5 mM MgCl2, 1 mM dNTP mixtures, 150 pmol of Random 6 mers, 60 U Ribonuclease Inhibitor (manufactured by Takara Shuzo Co., Ltd., 2310A), and 15 U Reverse Transcriptase XL (AMV) (manufactured by Takara Shuzo Co., Ltd., 2620A) were incubated at 30° C. for 10 minutes and thereafter at 42° C. for 1 hour using a thermal cycler (GeneAmp PCR System 9600, manufactured by Applied Biosystems), and the mixture was heated at 99° C. for 5 minutes to deactivate the enzyme, to give cDNA.
(§5) Oligonucleotide primers for reaction of PCR were designed based on mRNA nucleotide sequence of each gene listed in the following tables, and synthesized in the same manner as above. In Tables 4 and 5, each gene evaluated in this Example, GenBank Accession NO, the name of oligonucleotide primers and SEQ ID NOs of the primers in Sequence Listing were listed. […]

[2] = tested on: interleukin-7 receptor (IL-7r); assay: RT-PCR expression level of IL-7r gene in monocytes; conditions: human monocytes, 30 PCR cycles
Procedure: as §1, §2, §3, §4, §5

[3] = tested on: properdin P factor, complement (PFC); assay: RT-PCR expression level of PFC gene in monocytes; conditions: human monocytes, 35 PCR cycles
Procedure: as §1, §2, §3, §4, §5

[4] = tested on: regulator of G-protein signaling-2 (RGS2); assay: RT-PCR expression level of RGS2 gene in monocytes; conditions: human monocytes, 35 PCR cycles
Procedure: as §1, §2, §3, §4, §5

[5] = tested on: interferon-induced 17-kDa/15-kDa protein (IFNp15/p17); assay: RT-PCR expression level of IFNp15/p17 gene in monocytes; conditions: human monocytes, 30 PCR cycles
Procedure: as §1, §2, §3, §4, §5

[6] = tested on: transketolase (TK); assay: RT-PCR expression level of TK gene in monocytes; conditions: human monocytes, 30 PCR cycles
Procedure: as §1, §2, §3, §4, §5

[7] = tested on: SCO (cytochrome oxidase deficient, yeast) homolog-2 (SCO2); assay: RT-PCR expression level of SCO2 gene in monocytes; conditions: human monocytes, 30 PCR cycles
Procedure: as §1, §2, §3, §4, §5

[8] = tested on: macrophage inflammatory protein-1-β (MIP1β); assay: RT-PCR expression level of MIP1β gene in monocytes; conditions: human monocytes, 30 PCR cycles
Procedure: as §1, §2, §3, §4, §5

[9] = tested on: macrophage inflammatory protein-2-α (MIP2α); assay: RT-PCR expression level of MIP2α gene in monocytes; conditions: human monocytes, 35 PCR cycles
Procedure: as §1, §2, §3, §4, §5

[10] = tested on: interleukin-1β (IL-1β); assay: RT-PCR expression level of IL-1β gene in monocytes; conditions: human monocytes, 30 PCR cycles
Procedure: as §1, §2, §3, §4, §5

[11] = tested on: signal peptidase complex (18 kDa) (SPC18); assay: RT-PCR expression level of SPC18 gene in monocytes; conditions: human monocytes, 30 PCR cycles
Procedure: as §1, §2, §3, §4, §5

[12] = tested on: lyzozyme (Lyz); assay: RT-PCR expression level of Lyz gene in monocytes; conditions: human monocytes, 30 PCR cycles
Procedure: as §1, §2, §3, §4, §5

[13] = tested on: myeloid leukemia cell differentiation protein-1 (MCL1); assay: RT-PCR expression level of MCL1 gene in monocytes; conditions: human monocytes, 30 PCR cycles
Procedure: as §1, §2, §3, §4, §5

[14] = tested on: macrophage-derived chemokine (MDC); assay: RT-PCR expression level of MDC gene in monocytes; conditions: human monocytes, 30 PCR cycles
Procedure: as §1, §2, §3, §4, §5

[15] = substance added alone, Con. (water) +/−
[16] = substance added alone, Con. (water) +
[17] = substance added alone, Con. (water) −
[18] = L + D: DGE and LPS, LPS alone −
[19] = T + D: DGE and TPA, TPA alone +/−
[20] = T + D: DGE and TPA, TPA alone −
[21] = T + D: DGE and TPA, TPA alone +
[22] = L + D: DGE and LPS, LPS alone +++
[23] = L + D: DGE and LPS, LPS alone +/−
[24] = T + D: DGE and TPA, TPA alone ++
[25] = L + D: DGE and LPS, LPS alone +

12-o-tetradecanoylphorbol 13-acetate [TPA, reference compound]
+/−: expression level of CD37 gene [1, 15] | expression level of RGS2 gene [4, 15] | expression level of Lyz gene [12, 16]
+: expression level of PFC gene [3, 16] | expression level of IFNp15/p17 gene [5, 16] | expression level of SCO2 gene [7, 16] | expression level of MIP2α gene [9, 15] | expression level of SPC18 gene [11, 16] | expression level of MCL1 gene [13, 16]
−: expression level of IL-7r gene [2, 15] | expression level of TK gene [6, 15] | expression level of MDC gene [14, 17]
++: expression level of MIP1β gene [8, 16] | expression level of IL-1β gene [10, 16]

O=C1C=CC(CO)OC1O [DGE, L-glycero-1,5-epoxy-1αβ,6-dihydroxy-cis-hex-3-en-2-one]
+: expression level of CD37 gene [1, 18] | expression level of PFC gene [3, 18] | expression level of PFC gene [3, 21] | expression level of PFC gene [3, 16] | expression level of IFNp15/p17 gene [5, 16] | expression level of TK gene [6, 23] | expression level of TK gene [6, 20] | expression level of SCO2 gene [7, 18] | expression level of SCO2 gene [7, 21] | expression level of SCO2 gene [7, 16] | expression level of IL-1β gene [10, 22] | expression level of IL-1β gene [10, 24] | expression level of IL-1β gene [10, 16] | expression level of SPC18 gene [11, 23] | expression level of SPC18 gene [11, 21] | expression level of SPC18 gene [11, 16] | expression level of Lyz gene [12, 23] | expression level of Lyz gene [12, 19] | expression level of Lyz gene [12, 16] | expression level of MCL1 gene [13, 23] | expression level of MCL1 gene [13, 21] | expression level of MCL1 gene [13, 16]
−: expression level of IL-7r gene ([2]; L + D: DGE and LPS, LPS alone ++) | expression level of IL-7r gene [2, 20] | expression level of IL-7r gene [2, 15] | expression level of MDC gene [14, 25] | expression level of MDC gene [14, 20] | expression level of MDC gene [14, 17]
+/−: expression level of CD37 gene [1, 19] | expression level of CD37 gene [1, 15] | expression level of RGS2 gene [4, 18] | expression level of RGS2 gene [4, 19] | expression level of RGS2 gene [4, 15] | expression level of IFNp15/p17 gene [5, 22] | expression level of IFNp15/p17 gene [5, 21] | expression level of TK gene [6, 15] | expression level of MIP1β gene [8, 22] | expression level of MIP1β gene [8, 24] | expression level of MIP1β gene [8, 16] | expression level of MIP2α gene [9, 25] | expression level of MIP2α gene [9, 21] | expression level of MIP2α gene [9, 15]

lipopolysaccharide [LPS, reference compound]
+: expression level of MIP2α gene [9, 15] | expression level of MDC gene [14, 17]
++: expression level of IL-7r gene [2, 15]
−: expression level of CD37 gene [1, 15] | expression level of PFC gene [3, 16] | expression level of RGS2 gene [4, 15] | expression level of SCO2 gene [7, 16]
+/−: expression level of TK gene [6, 15] | expression level of SPC18 gene [11, 16] | expression level of Lyz gene [12, 16] | expression level of MCL1 gene [13, 16]
+++: expression level of IFNp15/p17 gene [5, 16] | expression level of MIP1β gene [8, 16] | expression level of IL-1β gene [10, 16]
